Test results reported in patent US7601737B2, “Isotopically substituted proton pump inhibitors” (priority 2005, dated 2009).

Key:
CYP2C19 = target: T1, CYP2C19 (Homo sapiens, UniProt P33261); assay: Metabolic clearance in recombinant human cytochrome P450 CYP2C19; type: in vitro ADME; conditions: recombinant P450 0.5 nmol/mL, disappearance of parent compound; lower limit of assay resolution 17.6 μl/min/nmol P450
T1 construct: purchased Cypex, Dundee, UK
Method: Incubations were carried out in triplicate.

in vitro = conditions: human, hepatocytes
Excerpt: (§1) 5-hydroxy-omeprazole was quantified using LC-MS/MS.

[1] = system: human cryopreserved hepatocytes; assay: in vitro; conditions: human, hepatocytes
Excerpt: as §1

CYP3A4 = CYP3A4 (Homo sapiens, UniProt P08684); assay: Metabolic clearance in recombinant human cytochrome P450 CYP3A4; conditions: recombinant P450 1 nmol/mL, disappearance of parent compound; lower limit of assay resolution 17.6 μl/min/nmol P450
Method: In order to evaluate the properties of the compounds according to the invention the compounds' intrinsic clearances in recombinant human cytochrome P450 (CYP) isoenzymes CYP1A2, CYP2C8, CYP2C19, CYP2D6, CYP3A4, and CYP3A5 were determined.
Incubations were carried out in triplicate. […] The intrinsic clearance was determined based on the rate of disappearance of parent compound. Pantoprazole, omeprazole and the deuterated analogues were determined by HPLC-UV. The lower limit of assay resolution based on experimental variability was 17.6 μl/min/nmol P450.

[2] = Metabolisation in liver microsomes (rat); type: in vitro ADME; conditions: 10 μM, 90 minutes incubation
Method: (§2) Pantoprazole or examples 1 or 2 (10 μM each) were incubated with liver microsomes (source: all from GenTest except Mini Pig from TEBU),incubation in 1 mg/ml protein, 100 mM Tris-HCl, pH 7.4, 1 mM NADPH2). Reaction was terminated after 90 minutes by liquid nitrogen, the parent compound was detected by HPLC (10 mM KH2PO4, pH 7.4, acetonitril gradient 20-44%).

[3] = Metabolisation in liver microsomes (dog); type: in vitro ADME; conditions: 10 μM, 90 minutes incubation
Method: as §2

[4] = Metabolisation in liver microsomes (human); type: in vitro ADME; conditions: 10 μM, 90 minutes incubation
Method: as §2

[5] = Metabolisation in liver microsomes (mouse); type: in vitro ADME; conditions: 10 μM, 90 minutes incubation
Method: as §2

[6] = Metabolisation in liver microsomes (guinea pig); type: in vitro ADME; conditions: Guinee pig liver microsomes, 10 μM, 90 minutes incubation
Method: as §2

[7] = Metabolisation in liver microsomes (monkey); type: in vitro ADME; conditions: 10 μM, 90 minutes incubation
Method: as §2

[8] = Metabolisation in liver microsomes (mini pig); type: in vitro ADME; conditions: 10 μM, 90 minutes incubation
Method: as §2

[9] = system: human cryopreserved hepatocytes; conditions: human, 60 min
Method: Following the evaluation of the metabolic clearance of the compounds according to the invention via P450 enzymes, the formation kinetics of the main metabolite identified in humans, i.e. M2 (5-(difluoromethoxy)-2-[[(3-methoxy-4-sulfate-2-pyridyl)-methyl]sulfinyl]-1H-benzimidazole) was determined. Because the generation of M2 involves the oxidation of the 4-methoxy-pyridyl group by CYP2C19 and subsequent conjugation with 3′-phosphoadenosine-5′-phosphosulfate (PAPS) by an unidentified sulphotransferase, human cryopreserved hepatocytes were used since both phase I and phase II enzymes are functional in this in vitro system.
M2 formation rate under these conditions was linear up to 60 min. The M2 formation rate was determined at nine different compound concentrations (0, 0.5, 1.0, 2.5, 5.0, 10.0, 25.0, 50.0 and 100 μMol/L) incubated in duplicate for 60 min at 37° C. M2 was quantified using LC-MS/MS. M2 isolated from human urine was used as an external standard. The concentration to reach the half-maximal formation rate (KM-value) and the maximal formation rate (Vmax) were obtained by non-linear regression analysis using the Michaelis-Menten equation. The intrinsic clearance (Clint) was obtained dividing Vmax over KM.

T1 sequence (P33261 whole entry): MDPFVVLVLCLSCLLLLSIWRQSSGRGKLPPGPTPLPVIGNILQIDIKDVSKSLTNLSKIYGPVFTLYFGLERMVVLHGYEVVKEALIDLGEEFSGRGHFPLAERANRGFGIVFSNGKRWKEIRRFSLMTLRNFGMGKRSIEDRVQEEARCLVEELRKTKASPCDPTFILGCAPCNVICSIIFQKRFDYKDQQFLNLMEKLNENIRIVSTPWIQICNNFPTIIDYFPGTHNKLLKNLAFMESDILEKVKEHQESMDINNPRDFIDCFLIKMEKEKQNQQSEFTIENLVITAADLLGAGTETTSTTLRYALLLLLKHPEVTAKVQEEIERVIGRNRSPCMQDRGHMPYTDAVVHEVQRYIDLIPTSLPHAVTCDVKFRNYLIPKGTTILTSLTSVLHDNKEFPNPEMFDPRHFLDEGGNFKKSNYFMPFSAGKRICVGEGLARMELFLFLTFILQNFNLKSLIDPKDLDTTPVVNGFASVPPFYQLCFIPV
CYP3A4, sequence (P08684 whole entry): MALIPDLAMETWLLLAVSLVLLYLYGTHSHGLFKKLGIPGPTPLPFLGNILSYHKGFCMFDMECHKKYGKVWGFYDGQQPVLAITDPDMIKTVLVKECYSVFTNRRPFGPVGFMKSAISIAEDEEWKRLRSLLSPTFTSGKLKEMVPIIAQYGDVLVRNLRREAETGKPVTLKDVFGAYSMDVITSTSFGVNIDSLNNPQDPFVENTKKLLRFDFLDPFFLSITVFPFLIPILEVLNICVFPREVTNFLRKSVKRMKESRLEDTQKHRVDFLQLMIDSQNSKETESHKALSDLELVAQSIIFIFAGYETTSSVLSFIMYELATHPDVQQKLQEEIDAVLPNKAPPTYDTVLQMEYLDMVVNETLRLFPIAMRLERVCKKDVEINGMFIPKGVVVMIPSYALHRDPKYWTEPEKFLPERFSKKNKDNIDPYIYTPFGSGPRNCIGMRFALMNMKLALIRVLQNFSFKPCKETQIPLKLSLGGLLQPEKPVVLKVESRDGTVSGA

Structure (SMILES) | Contribution of CYP2C19 to the oxidative metabolism (CYP2C19) | hepatocyte CLint (in vitro) [µL/min/1e6 cells] | % Σ Clint rac. Omeprazole [1] [%] | Contribution of CYP3A4 to the oxidative metabolism (CYP3A4) | Percent of compound metabolized [2] [%] | Percent of compound metabolized [3] [%] | Percent of compound metabolized [4] [%] | Percent of compound metabolized [5] [%] | Percent of compound metabolized [6] [%] | Percent of compound metabolized [7] [%] | Percent of compound metabolized [8] [%] | Substrate concentrations at which formation of M2 appeared to be inhibited [9]
COc1ccc2[nH]c([S+]([O-])Cc3ncc(C)c(OC)c3C)nc2c1 (racemic) [rac. Omeprazole, 5-methoxy-2-[(4-methoxy-3,5-dimethyl-2-pyridinyl)methylsulphinyl]-1H-benzimidazole, reference compound] | contribute to the oxidative metabolism | 2 | 100 | contribute to the oxidative metabolism | – | – | – | – | – | – | – | –
COc1ccnc(C[S+]([O-])c2nc3ccc(OC(F)F)cc3[nH]2)c1OC (centres unmarked) [H-Pantoprazole, 5-difluoromethoxy-2-[(3,4-dimethoxy-2-pyridinyl)methylsulphinyl]-1H-benzimidazole, reference compound] | contribute to the oxidative metabolism | – | – | contribute to the oxidative metabolism | 61 | 20 | 28 | 62 | 78 | 73 | 26 | above 100 μM
